Assay results published in PubChem BioAssay (NCI).
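Method: 48-hour compound exposure of cells in 96-well plates, five concentrations, linear interpolation of endpoints. Here, GI50 denotes the concentration required for 50% inhibition of growth. At the TGI there is no net growth.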

How the values were obtained:
Experiment in all cases: inhibition of tumour cell growth, NCI panel, 48 h
A498 renal = tested on: A498 renal
ACHN renal = tested on: ACHN renal
BT-549 breast = tested on: BT-549 breast
DU-145 prostate = tested on: DU-145 prostate
MDA-MB-435 = tested on: MDA-MB-435
NCI-H226 lung = tested on: NCI-H226 lung
OVCAR-3 ovarian = tested on: OVCAR-3 ovarian
PC-3 prostate = tested on: PC-3 prostate
RPMI-8226 leukemia = tested on: RPMI-8226 leukemia
SF-295 CNS = tested on: SF-295 CNS
SK-MEL-5 melanoma = tested on: SK-MEL-5 melanoma
SK-OV-3 ovarian = tested on: SK-OV-3 ovarian
SNB-75 CNS = tested on: SNB-75 CNS
TK-10 renal = tested on: TK-10 renal
786-0 renal = tested on: 786-0 renal
HOP-62 NSCLC = tested on: HOP-62 NSCLC
HS 578T breast = tested on: HS 578T breast
M14 melanoma = tested on: M14 melanoma
OVCAR-4 ovarian = tested on: OVCAR-4 ovarian
RXF 393 renal = tested on: RXF 393 renal
U251 CNS = tested on: U251 CNS
UACC-257 melanoma = tested on: UACC-257 melanoma

Compound | GI50 (A498 renal) [nM] | TGI (A498 renal) [nM] | GI50 (ACHN renal) [nM] | TGI (ACHN renal) [nM] | GI50 (BT-549 breast) [nM] | TGI (BT-549 breast) [nM] | GI50 (DU-145 prostate) [nM] | TGI (DU-145 prostate) [nM] | GI50 (MDA-MB-435) [nM] | TGI (MDA-MB-435) [nM] | GI50 (NCI-H226 lung) [nM] | TGI (NCI-H226 lung) [nM] | GI50 (OVCAR-3 ovarian) [nM] | TGI (OVCAR-3 ovarian) [nM] | GI50 (PC-3 prostate) [nM] | TGI (PC-3 prostate) [nM] | GI50 (SF-295 CNS) [nM] | TGI (SF-295 CNS) [nM] | GI50 (SK-MEL-5 melanoma) [nM] | TGI (SK-MEL-5 melanoma) [nM] | also measured
N=C(N)c1ccc(-c2ccc(-c3ccc(Cl)cc3)o2)o1 | 2120 | 7590 | 1890 | 3510 | 5920 | 29600 | 1750 | 3270 | 1360 | 2690 | 2190 | 6460 | 1830 | 3430 | 1810 | 3380 | 1830 | 3320 | 1810 | 3210 | GI50 (RPMI-8226 leukemia): 2120 nM; TGI (RPMI-8226 leukemia): 4780 nM; GI50 (SK-OV-3 ovarian): 1790 nM; TGI (SK-OV-3 ovarian): 3350 nM; GI50 (SNB-75 CNS): 1500 nM; TGI (SNB-75 CNS): 2860 nM; GI50 (TK-10 renal): 2070 nM; TGI (TK-10 renal): 3570 nM
Cc1cc(N2CCCCCC2)nc(NC2CCCC(Nc3ccnc4cc(Cl)ccc34)C2)n1 (stereo not drawn) | 1440 | 2860 | 1540 | 2870 | 1440 | 3090 | 1610 | 2990 | 1630 | 3080 | 2010 | 3760 | 1760 | 3390 | 1630 | 3200 | 1450 | 2840 | 1670 | 3040 | GI50 (786-0 renal): 1270 nM; TGI (786-0 renal): 2600 nM; GI50 (HOP-62 NSCLC): 1630 nM; TGI (HOP-62 NSCLC): 3150 nM; GI50 (HS 578T breast): 1800 nM; TGI (HS 578T breast): 4420 nM; GI50 (M14 melanoma): 1190 nM; TGI (M14 melanoma): 2740 nM; GI50 (OVCAR-4 ovarian): 1560 nM; TGI (OVCAR-4 ovarian): 3250 nM; GI50 (RXF 393 renal): 1200 nM; TGI (RXF 393 renal): 2580 nM; GI50 (SK-OV-3 ovarian): 1770 nM; TGI (SK-OV-3 ovarian): 3230 nM; GI50 (TK-10 renal): 1990 nM; TGI (TK-10 renal): 3540 nM; GI50 (U251 CNS): 1470 nM; TGI (U251 CNS): 2780 nM; GI50 (UACC-257 melanoma): 2170 nM; TGI (UACC-257 melanoma): 3700 nM
